Patent US8729273B2, “Compounds effective as xanthine oxidase inhibitors, method for preparing the same, and pharmaceutical composition containing the same” (LG Life Sciences Ltd., priority 2009, dated 2014)
pIC50: −log10 of the molar value.

Key:
plasma uric acid = assay: In vivo xanthine oxidase assay: plasma uric acid-lowering activity in oxonic acid-induced high-uric acid model; parameters: species or system rat; conditions: male SD rats, potassium oxonate 300 mg/kg i.p., compound 10 mg/kg oral, plasma at 1 h after oral administration; normal group = 100% inhibition, control group = 0%
Description: Uric Acid-Lowering Activity in Plasma and Liver (Oxonic Acid-Induced High-Uric Acid Model in Rat)
In order to estimate the plasma uric acid-lowering ability of the compounds according to the present invention, experiments were carried out using oxonic acid-induced high-uric acid model.
300 mg/kg of potassium oxonate suspended in 0.8% carboxymethylcellulose solution was intraperitoneally administered to male SD rats of body weight 200 g (control group, compound administration group). 1 h after the oxonic acid administration, 10 mg/kg of test compounds dissolved in polyethyleneglycol 400:ethanol (2:1) solution were orally administered (compound administration group), and after the time period of 1 h blood was sampled. Plasma was separated from thus-obtained blood, and the uric acid concentration in the plasma was quantified utilizing LC-MS/MS. FIGS. 1 and 2 represent the results of plasma uric acid concentration and inhibition rate of plasma uric acid, respectively.
Through the present experiment, excellent plasma uric acid-lowering activity of the compounds according to the present invention was verified.

[1] = target: Xanthine oxidase originated from bovine milk (Bos taurus (Bovine), UniProt P80457); assay: Xanthine oxidase inhibition activity (initial velocity of uric acid formation); format: biochemical; conditions: 3 min incubation with test compound, substrate xanthine
Description: Xanthine oxidase originated from bovine milk was incubated for 3 min with test compounds, and the initial velocity of uric acid formation was determined by adding the substrate xanthine. The initial velocity of test compound at each concentration was converted to % inhibition rate on the basis of the initial velocity under the absence of the inhibitor, thereby the inhibitor concentration needed for 50% inhibition was calculated as IC50 values. According to the present invention, compounds which show IC50 values against xanthine oxidase from bovine milk in the level of nM were developed.

Sequence of Xanthine oxidase originated from bovine milk (P80457 whole entry): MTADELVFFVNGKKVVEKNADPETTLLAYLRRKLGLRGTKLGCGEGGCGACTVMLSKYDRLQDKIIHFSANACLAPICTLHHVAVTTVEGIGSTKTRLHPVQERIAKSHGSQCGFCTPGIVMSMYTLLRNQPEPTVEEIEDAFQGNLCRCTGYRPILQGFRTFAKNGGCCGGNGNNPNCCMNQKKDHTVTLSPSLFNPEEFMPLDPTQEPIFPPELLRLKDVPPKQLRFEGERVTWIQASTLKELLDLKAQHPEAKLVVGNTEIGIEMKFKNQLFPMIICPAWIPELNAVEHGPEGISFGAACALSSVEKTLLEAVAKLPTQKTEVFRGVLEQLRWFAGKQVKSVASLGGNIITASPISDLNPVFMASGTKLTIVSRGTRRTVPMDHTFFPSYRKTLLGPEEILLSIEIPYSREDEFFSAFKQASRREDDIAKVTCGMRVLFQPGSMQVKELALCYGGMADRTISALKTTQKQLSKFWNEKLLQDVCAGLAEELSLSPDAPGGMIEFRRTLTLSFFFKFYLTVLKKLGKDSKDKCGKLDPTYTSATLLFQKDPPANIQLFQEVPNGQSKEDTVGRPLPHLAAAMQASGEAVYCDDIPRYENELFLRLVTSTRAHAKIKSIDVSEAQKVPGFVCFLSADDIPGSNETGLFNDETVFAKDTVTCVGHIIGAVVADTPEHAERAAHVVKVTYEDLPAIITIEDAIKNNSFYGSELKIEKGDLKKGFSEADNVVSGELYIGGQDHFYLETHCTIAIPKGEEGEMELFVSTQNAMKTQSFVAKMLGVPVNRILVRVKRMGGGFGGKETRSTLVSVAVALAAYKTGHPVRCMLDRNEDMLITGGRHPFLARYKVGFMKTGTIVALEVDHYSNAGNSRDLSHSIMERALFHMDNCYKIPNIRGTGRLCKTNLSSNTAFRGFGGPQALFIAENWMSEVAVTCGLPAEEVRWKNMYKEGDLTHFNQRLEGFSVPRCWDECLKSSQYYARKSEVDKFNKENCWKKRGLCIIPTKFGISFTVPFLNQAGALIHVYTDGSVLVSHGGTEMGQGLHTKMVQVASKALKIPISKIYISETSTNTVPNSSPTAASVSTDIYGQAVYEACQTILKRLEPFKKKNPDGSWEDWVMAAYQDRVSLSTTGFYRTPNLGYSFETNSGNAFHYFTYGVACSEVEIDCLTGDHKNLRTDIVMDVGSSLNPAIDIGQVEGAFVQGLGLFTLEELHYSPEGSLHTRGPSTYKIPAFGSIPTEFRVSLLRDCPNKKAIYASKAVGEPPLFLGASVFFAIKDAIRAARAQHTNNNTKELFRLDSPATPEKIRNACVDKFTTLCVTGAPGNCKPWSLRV

Row | SMILES | uric acid inhibition rate (plasma uric acid) [%] | pIC50 [1]
1 | CC(C)n1cc(C#N)c2cc(-n3cc(C(=O)O)cn3)ccc21 [Example 1, 1-(3-cyano-1-isopropyl-indol-5-yl)pyrazole-4-carboxylic acid] | 60 | 8.47
2 | N#Cc1cn(CC2CC2)c2ccc(-n3cc(C(=O)O)cn3)cc12 [Example 2, 1-[3-cyano-1-(cyclopropylmethyl)indol-5-yl]pyrazole-4-carboxylic acid] |  | 8.55
3 | N#Cc1cn(C2CC2)c2ccc(-n3cc(C(=O)O)cn3)cc12 [Example 3, 1-[3-cyano-1-cyclopropyl-indol-5-yl]pyrazole-4-carboxylic acid] |  | 8.22
4 | CC(C)Cn1cc(C#N)c2cc(-n3cc(C(=O)O)cn3)ccc21 [Example 4, 1-(3-cyano-1-isobutyl-indol-5-yl)pyrazole-4-carboxylic acid] |  | 8.35
5 | CC(C)(C)Cn1cc(C#N)c2cc(-n3cc(C(=O)O)cn3)ccc21 [Example 5, 1-[3-cyano-1-(2,2-dimethylpropyl)indol-5-yl]pyrazole-4-carboxylic acid] |  | 8.30
6 | COCCn1cc(C#N)c2cc(-n3cc(C(=O)O)cn3)ccc21 [Example 6, 1-[3-cyano-1-(2-methoxyethyl)indol-5-yl]pyrazole-4-carboxylic acid] |  | 8.42
7 | CCC(C)n1cc(C#N)c2cc(-n3cc(C(=O)O)cn3)ccc21 (centres unmarked) [Example 7, 1-(3-cyano-1-sec-butyl-indol-5-yl)-pyrazole-4-carboxylic acid] |  | 8.17
8 | N#Cc1cn(C2CCC2)c2ccc(-n3cc(C(=O)O)cn3)cc12 [Example 8, 1-[3-cyano-1-cyclobutyl-indol-5-yl]pyrazole-4-carboxylic acid] |  | 8.16
9 | N#Cc1cn(C2CCCC2)c2ccc(-n3cc(C(=O)O)cn3)cc12 [Example 9, 1-(3-cyano-1-cyclopentyl-indol-5-yl)-pyrazole-4-carboxylic acid] |  | 8.34
10 | CC(CF)n1cc(C#N)c2cc(-n3cc(C(=O)O)cn3)ccc21 (centres unmarked) [Example 10, 1-[3-cyano-1-(1-fluoropropan-2-yl)-indol-5-yl]-pyrazole-4-carboxylic acid] |  | 8.28
11 | N#Cc1cn(C2CCOC2)c2ccc(-n3cc(C(=O)O)cn3)cc12 (centres unmarked) [Example 11, 1-[3-cyano-1-(tetrahydrofuran-3-yl)-indol-5-yl]-pyrazole-4-carboxylic acid] |  | 8.27
12 | Cc1nn(-c2ccc3c(c2)c(C#N)cn3C(C)C)cc1C(=O)O [Example 12, 1-[3-cyano-1-isopropyl-indol-5-yl]-3-methyl-pyrazole-4-carboxylic acid] |  | 7.94
13 | Cc1nn(-c2ccc3c(c2)c(C#N)cn3CC2CC2)cc1C(=O)O [Example 13, 1-[3-cyano-1-(cyclopropylmethyl)indol-5-yl]-3-methyl-pyrazole-4-carboxylic acid] |  | 8.32
14 | COCCn1cc(C#N)c2cc(-n3cc(C(=O)O)c(C)n3)ccc21 [Example 14, 1-[3-cyano-1-(2-methoxyethyl)indol-5-yl]-3-methyl-pyrazole-4-carboxylic acid] |  | 7.92
15 | CC(C)n1cc(C#N)c2cc(-n3cc(C(=O)O)c(C(F)(F)F)n3)ccc21 [Example 15, 1-[3-cyano-1-isopropyl-indol-5-yl]-3-(trifluoromethyl)pyrazole-4-carboxylic acid] |  | 4.53
16 | N#Cc1cn(CC2CC2)c2ccc(-n3cc(C(=O)O)c(C(F)(F)F)n3)cc12 [Example 16, 1-[3-cyano-1-(cyclopropylmethyl)indol-5-yl]-3-(trifluoromethyl)pyrazole-4-carboxylic acid] |  | 4.67

Row | SMILES | uric acid inhibition rate (plasma uric acid) [%] | pIC50 [1]
17 | CC(C)n1cc([N+](=O)[O-])c2cc(-n3cc(C(=O)O)cn3)ccc21 [Example 17, 1-(1-isopropyl-3-nitro-indol-5-yl)pyrazole-4-carboxylic acid] |  | 8.34
18 | CC(C)n1cc(C#N)c2cc(-n3cnc(C(=O)O)n3)ccc21 [Example 18, 1-(3-cyano-1-isopropyl-indol-5-yl)-1,2,4-triazole-3-carboxylic acid] |  | 7.89
19 | CC(C)n1cc(C#N)c2cc(-n3cnc(C(=O)O)c3)ccc21 [Example 19, 1-(3-cyano-1-isopropyl-indol-5-yl)imidazole-4-carboxylic acid] |  | 7.62
20 | CC(C)n1cc(C#N)c2cc(-c3ccc(C(=O)O)s3)ccc21 [Example 20, 5-(3-cyano-1-isopropyl-indol-5-yl)-thiophene-2-carboxylic acid] |  | 8.33
21 | CC(C)n1cc(C#N)c2cc(-c3cc(C(=O)O)ccn3)ccc21 [Example 21, 2-(3-cyano-1-isopropyl-indol-5-yl)isonicotinic acid] |  | 8.21
22 | N#Cc1cn(CC2CC2)c2ccc(-c3cc(C(=O)O)ccn3)cc12 [Example 22, 2-[3-cyano-1-(cyclopropylmethyl)-indol-5-yl]isonicotinic acid] |  | 8.68
23 | N#Cc1cn(C2CCOC2)c2ccc(-c3cc(C(=O)O)ccn3)cc12 (centres unmarked) [Example 23, 2-[3-cyano-1-(tetrahydrofuran-3-yl)-indol-5-yl]isonicotinic acid] |  | 8.00
24 | CC(CF)n1cc(C#N)c2cc(-c3cc(C(=O)O)ccn3)ccc21 (centres unmarked) [Example 24, 2-[3-cyano-1-(1-fluoropropan-2-yl)-indol-5-yl]isonicotinic acid] |  | 8.21
25 | COCCn1cc(C#N)c2cc(-c3cc(C(=O)O)ccn3)ccc21 [Example 25, 2-[3-cyano-1-(2-methoxyethyl)-indol-5-yl]isonicotinic acid] |  | 8.07
26 | Cc1cc(C(=O)O)cc(-c2ccc3c(c2)c(C#N)cn3C(C)C)n1 [Example 26, 2-(3-cyano-1-isopropyl-indol-5-yl)-6-methylisonicotinic acid] |  | 5.40
27 | CC(C)n1cc([N+](=O)[O-])c2cc(-c3cc(C(=O)O)ccn3)ccc21 [Example 27, 2-(1-isopropyl-3-nitro-indol-5-yl) isonicotinic acid] |  | 7.96
28 | N#Cc1cc(-n2cc(C(=O)O)cn2)cc2cc(-c3ccccc3)[nH]c12 [Example 28, 1-(7-cyano-2-phenyl-1H-indol-5-yl)-pyrazole-4-carboxylic acid] |  | 7.62
29 | CC(C)c1cc2cc(-n3cc(C(=O)O)cn3)cc(C#N)c2[nH]1 [Example 29, 1-(7-cyano-2-isopropyl-1H-indol-5-yl)-pyrazole-4-carboxylic acid] |  | 8.30
30 | COCc1cc2cc(-n3cc(C(=O)O)cn3)cc(C#N)c2[nH]1 [Example 30, 1-(7-cyano-2-methoxymethyl-1H-indol-5-yl)-pyrazole-4-carboxylic acid] |  | 7.77
31 | N#Cc1cc(-n2cc(C(=O)O)cn2)cc2cc[nH]c12 [Example 31, 1-(7-cyano-1H-indol-5-yl)-pyrazole-4-carboxylic acid] |  | 7.40
